Laboratory results taken from patent publication US9260435B2, “Substituted imidazopyrazines as Akt kinase inhibitors” (Bayer Intellectual Property GmbH, priority 2012, dated 2016).

Columns and labels:
[1] = target: His-tagged human recombinant kinase full-length Akt1 (Homo sapiens (Human), UniProt P31749); assay: Akt1 kinase assay (TR-FRET); type: biochemical; conditions: 10 μM ATP, read-out: Akt1, median IC50
From the text: Biological Assay 1.0: Akt1 Kinase Assay
Akt1 inhibitory activity of compounds of the present invention was quantified employing the Akt1 TR-FRET assay as described in the following paragraphs.
(§1) His-tagged human recombinant kinase full-length Akt1 expressed in insect cells was purchased form Invitrogen (part number PV 3599). As substrate for the kinase reaction the biotinylated peptide biotin-Ahx-KKLNRTLSFAEPG (C-terminus in amide form) was used which can be purchased e.g. from the company Biosynthan GmbH (Berlin-Buch, Germany).
(§2) For the assay 50 nl of a 100 fold concentrated solution of the test compound in DMSO was pipetted into a black low volume 384 well microtiter plate (Greiner Bio-One, Frickenhausen, Germany), 2 μl of a solution of Akt1 in assay buffer [50 mM TRIS/HCl pH 7.5, 5 mM MgCl2, 1 mM dithiothreitol, 0.02% (v/v) Triton X-100 (Sigma)] were added and the mixture was incubated for 15 min at 22° C. to allow prebinding of the test compounds to the enzyme before the start of the kinase reaction. Then the kinase reaction was started by the addition of 3 μl of a solution of adenosine-tri-phosphate (ATP, 16.7 μM=>final conc. in the 5 μl assay volume is 10 μM) and substrate (1.67 μM=>final conc. in the 5 μl assay volume is 1 μM) in assay buffer and the resulting mixture was incubated for a reaction time of 60 min at 22° C. The concentration of Akt1 in the assay was adjusted depending of the activity of the enzyme lot and was chosen appropriate to have the assay in the linear range, typical enzyme concentrations were in the range of about 0.05 ng/μl (final conc. in the 5 μl assay volume).
(§3) The reaction was stopped by the addition of 5 μl of a solution of HTRF detection reagents (200 nM streptavidine-XL665 [Cisbio] and 1.5 nM anti-phosho-Serine antibody [Millipore, cat. #35-001] and 0.75 nM LANCE Eu-W 1024 labeled anti-mouse IgG antibody [Perkin Elmer]) in an aqueous EDTA-solution (100 mM EDTA, 0.1% (w/v) bovine serum albumin in 50 mM HEPES/NaOH pH 7.5).
(§4) The resulting mixture was incubated 1 h at 22° C. to allow the binding of the biotinylated phosphorylated peptide to the streptavidine-XL665 and the antibodies. Subsequently the amount of phosphorylated substrate was evaluated by measurement of the resonance energy transfer from the anti-mouse-IgG-Eu-Chelate to the streptavidine-XL665. Therefore, the fluorescence emissions at 620 nm and 665 nm after excitation at 350 nm was measured in a HTRF reader, e.g. a Rubystar (BMG Labtechnologies, Offenburg, Germany) or a Viewlux (Perkin-Elmer). The ratio of the emissions at 665 nm and at […] was taken as the measure for the amount of phosphorylated substrate. The data were normalised (enzyme reaction without inhibitor=0% inhibition, all other assay components but no enzyme=100% inhibition).

[2] = target: His-tagged human recombinant kinase full-length Akt2 (Homo sapiens (Human), UniProt P31751); assay: Akt2 kinase assay (TR-FRET); type: biochemical; conditions: 10 μM ATP, read-out: Akt2, median IC50
From the text: Biological Assay 2.0: Akt2 Kinase Assay
Akt2 inhibitory activity of compounds of the present invention was quantified employing the Akt2 TR-FRET assay as described in the following paragraphs.
as §1, with “full-length Akt2” for “full-length Akt1”, “cells and activated by PDK1” for “cells”, “purchased from” for “purchased form”, “PV 3975).” for “PV 3599).”
as §2, with “Akt2” for “Akt1”, “0.2” for “0.05”
as §3
as §4, with “TR-FRET” for “HTRF”

phospho-AKT at S473 = assay: Cellular p-AKT1/2/3-S473 assay in KPL-4 cells; type: cell-based; conditions: Homo sapiens, KPL4; KPL-4 breast tumour cell line, 2 hours treatment; read-out: pAKT-S743 median IC50
Method: The phospho-substrates of PI3K-AKT-mTOR axis were used as the readouts to reflect pathway inhibition. Cells were seeded at 60-80% confluency per well in 96-well cell culture plates. After overnight incubation at 37° C. 5% CO2, cells were treated with compounds and vehicle at 37° C. for 2 hours. […] All measurements where at least done in duplicates and confirmed by independent repetition. Alternatively pAKT-S473 was measured using the “Akt Duplex” of the MULTI-SPOT® Assay System (Fa. Meso Scale Discovery, Cat# N41100B-1) following manufacturers instructions. Each assay used 20 μg of protein extract and measured total AKT and p-AKT content simultaneously in one well. All measurements where at least done in duplicates and confirmed by independent repetition. Values for P-AKT are expressed as percentage of P-AKT level compared to total-AKT content of the extracts.

p-4E-BP1 at T70 = assay: Cellular p-4E-BP1-T70 assay in KPL-4 cells; type: cell-based; conditions: Homo sapiens, KPL4; KPL-4 breast tumour cell line, 2 hours treatment; read-out: P4EBP1-T70 median IC50
Method: The molecular mechanism of action was investigated in a set of experiments to assess the inhibition of the PI3K-AKT-mTOR pathway in responsive cell lines such as KPL-4 breast tumour cell line (PIK3CA^H1047R, HER2^O/E and hormone independent). The phospho-substrates of PI3K-AKT-mTOR axis were used as the readouts to reflect pathway inhibition. Cells were seeded at 60-80% confluency per well in 96-well cell culture plates. After overnight incubation at 37° C. 5% CO2, cells were treated with compounds and vehicle at 37° C. for 2 hours. Thereafter, cells were lysed in 150 μl lysis buffer and the levels of phospho-AKT at T308 and S473 and p-4E-BP1 at T70 sites were determined with the corresponding AlphaScreen® SureFire® assay kits (Perkin Elmer: 4E-BP1 Assay Kit Cat # TRG4E2S10K; Akt 1/2/3 p-Ser 473 #TGRA4S500 and Akt 1/2/3 p-Thr 308 #TGRA3S500 as well as IgG detection Kit #6760617M) as described in the manuals. All measurements where at least done in duplicates and confirmed by independent repetition. Alternatively pAKT-S473 was measured using the “Akt Duplex” of the MULTI-SPOT® Assay System (Fa. Meso Scale Discovery, Cat# N41100B-1) following manufacturers instructions. Each assay used 20 μg of protein extract and measured total AKT and p-AKT content simultaneously in one well. All measurements where at least done in duplicates and confirmed by independent repetition. Values for P-AKT are expressed as percentage of P-AKT level compared to total-AKT content of the extracts.

[3] = test system: KPL-4 breast cancer cell line; assay: Tumor cell proliferation assay (CellTiter-Glo, 72 h), KPL-4; type: cell-based; conditions: Homo sapiens, KPL4, 72 h drug exposure
Method: (§5) Biological Assay 4.0: Tumor Cell Proliferation Assays
(§6) Compounds were tested in a cell-based assay that measures the capacity of the compounds to inhibit tumour cell proliferation following a 72 h drug exposure. Cell viability is determined using CellTiter-Glow® (CTG, Promega, cat# G7571/2/3). The CellTiter-Glo® Luminescent Cell Viability Assay is a homogeneous method to determine the number of viable cells in culture. Detection is based on using the luciferase reaction to measure the amount of ATP from viable cells. The amount of ATP in cells correlates with cell viability. Within minutes after a loss of membrane integrity, cells lose the ability to synthesize ATP, and endogenous ATPases destroy any remaining ATP; thus the levels of ATP fall precipitously.
(§7) Cells were plated at 3000-5000 cells/well (depending on the cell lines) in 90 μL growth medium on MTPs (Corning; #3603, black plate, clear flat bottom). For each cell line assayed, cells were plated onto a separate plate for determination of […] at t=0 hour and t=72 hour time points. Following overnight incubation at 37° C., chemiluminescence values for the t=0 samples were determined after adding 10 μl medium and 100 μl CTG solution according to manufacture protocol. Plates for the t=72 hour time points were treated with compounds diluted into growth medium at ten times final concentration added in 10 μL to the cell culture plate. Cells were then incubated for 72 hours at 37° C. Chemiluminescence values for the t=72 hour samples were determined. […] Experiments were controlled using a reference compound as standard.
(§8) Preferred compounds of the present invention show in this assay an inhibition of cell growth of cell lines such as the KPL-4 breast cancer cell line and the MCF-7 breast tumour cell line ([…], hormone dependent) with a median IC50 of <10 μM, more preferably, median IC50≦1 μM.

[4] = test system: MCF-7 breast tumour cell line; assay: Tumor cell proliferation assay (CellTiter-Glo, 72 h), MCF-7; type: cell-based; conditions: Homo sapiens, MCF7, 72 h drug exposure
Method: as §5, §6, §7, §8

Sequence of His-tagged human recombinant kinase full-length Akt1 (P31749 whole entry): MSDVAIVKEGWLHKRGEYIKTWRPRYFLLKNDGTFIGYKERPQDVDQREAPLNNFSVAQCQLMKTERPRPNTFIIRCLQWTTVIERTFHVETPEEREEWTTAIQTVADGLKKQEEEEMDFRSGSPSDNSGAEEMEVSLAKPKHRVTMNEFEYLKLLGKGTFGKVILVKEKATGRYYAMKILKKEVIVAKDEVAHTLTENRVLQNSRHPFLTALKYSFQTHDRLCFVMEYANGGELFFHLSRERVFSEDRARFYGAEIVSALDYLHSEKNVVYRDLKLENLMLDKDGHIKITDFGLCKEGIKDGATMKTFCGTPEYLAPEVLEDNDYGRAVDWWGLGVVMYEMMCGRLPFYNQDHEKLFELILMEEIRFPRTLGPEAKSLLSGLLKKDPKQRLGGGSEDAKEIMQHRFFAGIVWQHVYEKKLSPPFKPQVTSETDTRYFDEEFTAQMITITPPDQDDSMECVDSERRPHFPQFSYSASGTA
Sequence of His-tagged human recombinant kinase full-length Akt2 (P31751 whole entry): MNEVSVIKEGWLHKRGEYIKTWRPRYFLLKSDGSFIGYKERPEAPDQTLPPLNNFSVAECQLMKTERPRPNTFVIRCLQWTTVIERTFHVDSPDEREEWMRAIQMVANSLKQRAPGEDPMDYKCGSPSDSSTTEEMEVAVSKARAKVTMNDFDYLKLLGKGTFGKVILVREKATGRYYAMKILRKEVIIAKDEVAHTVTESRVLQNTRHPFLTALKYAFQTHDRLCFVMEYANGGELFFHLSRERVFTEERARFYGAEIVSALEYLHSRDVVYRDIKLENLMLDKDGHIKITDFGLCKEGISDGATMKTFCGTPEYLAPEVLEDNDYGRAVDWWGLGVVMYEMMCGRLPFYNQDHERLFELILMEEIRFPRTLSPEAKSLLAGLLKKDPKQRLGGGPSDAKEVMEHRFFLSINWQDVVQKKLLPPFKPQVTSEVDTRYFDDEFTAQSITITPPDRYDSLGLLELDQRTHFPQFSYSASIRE

NC1(c2ccc(-c3nc4c(O)nccn4c3-c3ccccc3)cc2)CCC1 [Example 1, 2-[4-(1-Aminocyclobutyl)phenyl]-3-phenylimidazo[1,2-a]pyrazin-8-ol] gave an IC50 [1] of 1.6 µM and an IC50 [2] of 0.97 µM.

For CCOC(=O)c1cn2c(-c3ccccc3)c(-c3ccc(C4(N)CCC4)cc3)nc2cn1 [Example 5, Ethyl 2-[4-(1-aminocyclobutyl)phenyl]-3-phenylimidazo[1,2-a]pyrazine-6-carboxylate], the IC50 (phospho-AKT at S473) was 0.037 µM, the IC50 (p-4E-BP1 at T70) was 0.029 µM and the inhibition at 1.67 µM ([3]; 1.67 μM, read-out: KPL-4 median inhibition at 1.67 μM (%)) was 15.2%. The IC50 [3] was 10 µM, the inhibition at 1.67 µM ([4]; 1.67 μM, read-out: MCF-7 median inhibition at 1.67 μM (%)) was 40.6% and the IC50 [4] was 2.4 µM.
